Reference: US12310372B1, “Water-based insect repellent composition” (priority 2022, dated 2025)

Tested on: Culex quinquefasciatus
Experiment: K & D Module Repellency Test (Complete Protection Time on volunteer's arm)
Format: in vivo
Conditions: Table 2; for Avg Duration: active package only in water/isopropanol, 100% repellency threshold (CPT)
Source text: Efficacy, Duration, and Percent Repellency: The primary method used to assess the efficacy and duration of an insect repellent is the “Arm-in-Cage Test”. The term “duration” as used herein refers to the time between (1) the application of the insect repellent composition and (2) when the subject first drops below the applicable minimum percent repellency threshold. For all of the testing methodologies used herein, the minimum threshold value for “percent repellency” at which the measurement for duration is cutoff is at least (≥) 90% repellency. For some testing methodologies used herein (such as the “Arm-in-Cage Test”), the minimum threshold value for “percent repellency” was 90% repellency. For other testing methodologies used herein (such as the “K & D Module Repellency Test”), the minimum threshold value for percent repellency was 100% repellency. When a duration is measured using a minimum threshold of 100% repellency, the duration may also be referred to as “Complete Protection Time” (CPT).
Another method that may be used to assess the insect repellent efficacy of an insect repellent composition is the “K & D Module Repellency Test.” The insect repellent efficacy is measured using a minimum repellency threshold of 100% repellency, which may also be referred to as the Complete Protection Time (CPT) of an insect repellent composition, which is the time period between the application of the insect repellent composition and the first insect landing.
In the K & D Module Repellency Test the test volunteer used a marker and a template, representing the base and the 3 cm.×4 cm. openings of the K & D module, to mark skin areas of his/her arm which were then treated with different insect repellent compositions at a skin dose of 0.0017 grams/cm^2 against the insect (in this case, Culex quinquefasciatus). The rectangular marks on the volunteer's arm represented where the six cells of the K & D module were positioned on the volunteer's arm. Each cell of the K & D module was filled with ten mated female mosquitoes (Culex quinquefasciatus), and the floor slide was removed from each cell to expose all mosquitoes to all skin treatments. The time between removing the floor slide of each cell and the first mosquito from the cell landing is recorded as the CPT.

SMILES: C=CCc1ccc(O)c(OC)c1 [CE17, eugenol]
- Avg Duration: 1.7 h
- Avg Duration (skin dose 0.0017 grams/cm^2): 1.67 h
- Duration (Min) (Time of confirmation land) Subject 1 (active package only): 60 min
- Duration (Min) (Time of confirmation land) Subject 2 (active package only): 120 min
- Duration (Min) (Time of confirmation land) Subject 3 (active package only): 120 min
- Duration (Min) (Time of confirmation land) Subject 4 (active package only, Subject 4): 100 min

SMILES: CC(C)=CCC/C(C)=C/CO [CE36, geraniol]
- Avg Duration: 0.8 h
- Avg Duration (skin dose 0.0017 grams/cm^2): 0.833 h
- Duration (Min) (Time of confirmation land) Subject 1 (active package only): 30 min
- Duration (Min) (Time of confirmation land) Subject 2 (active package only): 60 min
- Duration (Min) (Time of confirmation land) Subject 3 (active package only): 60 min
